Entries after “also recorded” stand apart in the source; their conditions may differ. Where two headings read alike, the source gives them in different places.
How the values were obtained:
[1] = target: T1, hM3Dq (Homo sapiens, UniProt P20309, A239G/Y149C); assay: Radioligand binding assay, [3H]clozapine competition, hM3Dq membranes; set-up: host or cells: HEK-293; settings: for Ki: HEK-293 membranes, 2.5 nM [3H]clozapine, Cheng-Prusoff; for Binding to the tested DREADDs (in words): hM3Dq and hM4Di
Procedure: (§1) HEK-293 cells were transfected with 5 μg/dish of pAAV plasmids encoding for hM3Dq (available from Addgene, Cambridge, Mass., plasmid #89149), hM4Di (available from Addgene, Cambridge, Mass., plasmid #89150) or a control vector and harvested 48 hours after transfection. […] The protein was quantified by the bicinchoninic acid method. […] Microscint-20 scintillation liquid ([…]) was added to the filter plates, plates were incubated overnight at room temperature and radioactivity counts were determined in a MICROBETA^2™ (PerkinElmer, Waltham, Mass.) plate counter with an efficiency of 41%. Competition curves were fitted to a one binding site model and Ki values were calculated using the Cheng-Prusoff equation.

[2] = target: T2, hM4Di (Homo sapiens, UniProt P08173, A203G/Y113C); assay: Radioligand binding assay, [3H]clozapine competition, hM4Di membranes; set-up: host or cells: HEK-293; settings: HEK-293 membranes, 2.5 nM [3H]clozapine, Cheng-Prusoff
T2 sequence (P08173 1-479 Y113C/A203G): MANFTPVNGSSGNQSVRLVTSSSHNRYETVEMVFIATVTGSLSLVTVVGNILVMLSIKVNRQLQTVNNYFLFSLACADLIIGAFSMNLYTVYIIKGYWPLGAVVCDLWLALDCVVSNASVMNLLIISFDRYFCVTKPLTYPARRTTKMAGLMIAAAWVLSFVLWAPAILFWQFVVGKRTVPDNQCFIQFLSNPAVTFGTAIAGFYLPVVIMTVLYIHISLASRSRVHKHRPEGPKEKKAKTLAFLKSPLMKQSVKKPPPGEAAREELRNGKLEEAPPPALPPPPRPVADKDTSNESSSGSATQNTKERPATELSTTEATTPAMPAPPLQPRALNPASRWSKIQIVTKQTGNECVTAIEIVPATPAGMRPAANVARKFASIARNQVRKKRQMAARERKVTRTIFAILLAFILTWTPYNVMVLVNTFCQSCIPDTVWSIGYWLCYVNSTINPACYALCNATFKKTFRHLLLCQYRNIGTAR
Procedure: as §1

[3] = target: T3, hM4Di (Gi1) (Homo sapiens, UniProt P08173, A203G/Y113C); assay: BRET assay of Gi1 activation in HEK-293 cells with hM4Di; format: cell-based; settings: for EC50: BRET change 5 minutes after addition; for Gi1 activation (BRET ratio): cells with hM4Di versus cells without DREADDs
T3 construct: host or cells: HEK-293
T3 sequence (P08173 1-479 Y113C/A203G): T2 sequence (P08173 1-479 Y113C/A203G)
Procedure: (§2) Bioluminescence resonance energy transfer (“BRET”) assays were performed to detect receptor ligand-induced Gi/o protein activation. […] Forty-eight hours after transfection cells were harvested, washed and resuspended in phosphate-buffered saline (“PBS”). Approximately 200,000 cells/well were distributed in 96-well plates, and 5 μM Coelenterazine H (substrate for luciferase) was added to each well.
(§3) Results were calculated for the BRET change (BRET ratio for the corresponding compound minus BRET ratio in the absence of the compound) 5 minutes after the addition of the compounds.

[4] = target: T4, hM4Di (Go1) (Homo sapiens, UniProt P08173, A203G/Y113C); assay: BRET assay of Go1 activation in HEK-293 cells with hM4Di; format: cell-based; settings: for EC50: BRET change 5 minutes after addition; for Go1 activation (BRET ratio): cells with hM4Di versus cells without DREADDs
T4 construct: host or cells: HEK-293
T4 sequence (P08173 1-479 Y113C/A203G): T2 sequence (P08173 1-479 Y113C/A203G)
Procedure: as §2, §3

[5] = test system: D1-hM3Dq, D1-hM4Di or WT mice; assay: FDG-PET brain metabolic mapping (DREAMM); format: in vivo
Procedure: The study was set up as follows. Mice (D1-hM3Dq, D1-hM4Di or WT littermates) were habituated to experimenter handling and fasted 16 hours before the experiment. On the day of the experiment, mice received an IP injection of vehicle (1 ml/kg) and were placed back into their home cages. Ten minutes later, mice were injected (IP) with 11 MBq of 2-deoxy-2-[^18F]fluoro-D-glucose (FDG, Cardinal Health, Westmont, Ill.) and placed back into their home cages. After 30 minutes, mice were anesthetized with 1.5% isoflurane, placed on a custom-made bed of a NANOSCAN small animal PET/CT scanner (Mediso Medical Imaging Systems) and scanned for 20 min on a static acquisition protocol, followed by a CT scan. […] In all cases, the PET data were reconstructed and co-registered to an MRI template as described above. Voxel-based repeated measures with Student's t-test comparing baseline to drug were performed, and the resulting parametric images were filtered for statistically significant (p<0.05) clusters larger than 100 contiguous voxels. All statistical parametric mapping analyses were performed using MATLAB R2016 (Mathworks, Chicago, Ill.) and SPM12 (University College London).

[6] = target: T1, hM3Dq; assay: Calcium accumulation assay (GCaMP6f) in HEK293 cells with hM3Dq; settings: for hM3Dq activation (fluorescence, calcium accumulation): cells with hM3Dq versus cells without DREADDs
Procedure: The changes in fluorescence were read every 18 seconds for 5 minutes.

[7] = test system: mice with D1-hM3Dq receptors; assay: Locomotor activity assay (open-field test); format: in vivo; settings: 0.01, 0.1, 1 mg/kg intraperitoneal; compared with clozapine
Procedure: Transgenic male and female mice (25-30 g, offspring of D1-Cre (heterozygous)×R26-hM3Dq/mCitrine (heterozygous) crossing) either heterozygous for both loci (CRE+, het het) or wild type for D1-Cre (CRE−, wt het) were tested for locomotor activity. The mice were injected (intraperitoneal) with the indicated dose of clozapine, compound I(g), or vehicle (buffered saline).

[8] = test system: DREADDs (hM3Dq, hM4Di) and endogenous clozapine-binding sites; assay: Autoradiography, [3H]clozapine displacement in brain sections of wild-type and transgenic DREADD mice; settings: about 3.5 nM [3H]clozapine, WT
Procedure: Flash frozen brain tissue was sectioned (20 μm) on a cryostat and thaw mounted onto ethanol-washed glass slides. […] Following incubation, the slides were washed with an incubation buffer for 5 mins (2×) followed by a 30 second dip in ice-cold deionized H2O. The slides were then air-dried, placed in a […]™ (GE Healthcare, UK) autoradiography cassette, covered with a BAS-TR2025 Storage Phosphor Screen (GE Healthcare, UK), exposed for 3-5 days, and imaged using a phosphorimager.

[9] = target: T2, hM4Di; assay: hM4Di-driven inhibition of light-evoked neuronal activation; format: in vivo; settings: 0.1 mg/kg

T1 sequence (P20309 whole entry Y149C/A239G): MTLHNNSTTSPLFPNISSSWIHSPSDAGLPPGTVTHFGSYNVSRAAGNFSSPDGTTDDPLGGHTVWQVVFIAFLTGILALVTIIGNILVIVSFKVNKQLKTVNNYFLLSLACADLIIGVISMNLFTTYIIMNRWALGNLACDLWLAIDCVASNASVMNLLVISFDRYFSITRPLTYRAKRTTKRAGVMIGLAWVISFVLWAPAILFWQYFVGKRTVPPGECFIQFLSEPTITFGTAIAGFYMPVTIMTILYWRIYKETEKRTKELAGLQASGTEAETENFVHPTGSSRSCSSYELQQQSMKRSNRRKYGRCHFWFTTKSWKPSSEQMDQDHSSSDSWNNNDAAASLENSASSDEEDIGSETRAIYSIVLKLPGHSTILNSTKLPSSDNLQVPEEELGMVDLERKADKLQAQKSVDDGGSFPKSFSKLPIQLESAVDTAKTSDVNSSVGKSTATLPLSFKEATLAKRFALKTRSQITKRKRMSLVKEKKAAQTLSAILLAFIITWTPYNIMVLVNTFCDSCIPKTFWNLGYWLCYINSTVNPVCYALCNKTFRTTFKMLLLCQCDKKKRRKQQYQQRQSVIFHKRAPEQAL

| SMILES | Ki [1] [nM] | Ki [2] [nM] | EC50 [3] [nM] | EC50 [4] [nM] | EC50 [6] [nM] | also measured |
| --- | --- | --- | --- | --- | --- | --- |
| c1ccc2c(c1)N=C(N1CCNCC1)c1ccccc1N2 [Compound 21, reference compound] | – | – | 2.7 | 1.7 | 1.66 | Brain metabolic activity (FDG-PET) ([5]; WT mice, 1 mg/kg): significant changes in brain metabolic activity; also recorded: decreased metabolic activity of multiple networks |
| C[N+]1([O-])CCN(C2=Nc3cc(Cl)ccc3Nc3ccccc32)CC1 [CNO, clozapine n-oxide, reference compound] | – | – | 13 | 3.1 | – | EC50 ([6]; read-out: EC50 value for hM3Dq, mean, calcium accumulation, fluorescence): 11.3 nM |
| CCN1CCN(C2=Nc3cc(Cl)ccc3Nc3cc(F)ccc32)CC1 [Compound I(c), 8-Chloro-11-(4-ethylpiperazin-1-yl)-3-fluoro-5H-dibenzo[b,e][1,4]diazepine] | 51.4 | 51.3 | – | – | – | – |
| CCN1CCN(C2=Nc3ccccc3Nc3cc(F)ccc32)CC1 [Compound I(d), 11-(4-Ethylpiperazin-1-yl)-3-fluoro-5H-dibenzo[b,e][1,4]diazepine] | 101 | 149 | – | – | – | – |
| [2H]C([2H])(C)N1CCN(C2=Nc3cc(Cl)ccc3Nc3ccccc32)CC1 [Compound 13, reference compound] | – | – | 0.067 | 0.063 | 1.43 | – |

Further lines, with some results ahead:

| Ki [1] [nM] | Ki [2] [nM] | EC50 [3] [nM] | EC50 [4] [nM] | EC50 [6] [nM] | SMILES | also measured |
| --- | --- | --- | --- | --- | --- | --- |
| 4.8 | 14.2 | – | – | – | CCN1CCN(C2=Nc3ccccc3Nc3cccc(F)c32)CC1 [Compound I(e), 11-(4-Ethylpiperazin-1-yl)-1-fluoro-5H-dibenzo[b,e][1,4]diazepine] | – |
| 33.5 | 118 | – | – | – | CCN1CCN(C2=Nc3ccccc3Nc3ccc(F)cc32)CC1 [Compound I(b), 11-(4-Ethylpiperazin-1-yl)-2-fluoro-5H-dibenzo[b,e][1,4]diazepine] | – |
| 10.5 | 23.5 | – | – | – | CCN1CCN(C2=Nc3cc(Cl)ccc3Nc3ccc(F)cc32)CC1 [Compound I(a), 8-chloro-11-(4-ethylpiperazin-1-yl)-2-fluoro-5H-dibenzo[b,e][1,4]diazepine] | Recruitment of whole-brain functional networks (FDG-PET) ([5]; D1-hM3Dq and D1-hM4Di mice, 0.1 mg/kg, n=4 per condition): opposing and differential recruitment of whole-brain functional networks |
| 1.7 | 8.7 | 0.24 | 0.8 | 5.15 | CCN1CCN(C2=Nc3cc(Cl)ccc3Nc3cccc(F)c32)CC1 [Compound I(g), 8-Chloro-11-(4-ethylpiperazin-1-yl)-1-fluoro-5H-dibenzo[b,e][1,4]diazepine] | Gi1 activation (BRET ratio) [3]: activate Gi1; Go1 activation (BRET ratio) [4]: activate Go1; Reduction of locomotor activity (distance traveled) [7]: more effective than clozapine at reducing locomotor activity; Binding to the tested DREADDs (in words) [1]: especially effective at binding the tested DREADDs; hM3Dq activation (fluorescence, calcium accumulation) [6]: effective at activating hM3Dq |
| 23.7 | 12.9 | – | – | – | CCN1CCN(C2=Nc3cc(F)ccc3Nc3ccccc32)CC1 [Compound I(f), 11-(4-Ethylpiperazin-1-yl)-8-fluoro-5H-dibenzo[b,e][1,4]diazepine] | – |
| 1.9 | 3.6 | 0.073 | 0.14 | 2.64 | CCN1CCN(C2=Nc3cc(Cl)ccc3Nc3c(F)cccc32)CC1 [Compound I(h), 8-Chloro-11-(4-ethylpiperazin-1-yl)-4-fluoro-5H-dibenzo[b,e][1,4]diazepine] | Displacement of [3H]clozapine binding ([8]; at 10 nM): selectively displaced [^3H]clozapine binding to DREADDs but not to endogenous sites; Displacement of [3H]clozapine binding ([8]; at 1 μM): completely displaced [^3H]clozapine binding to both DREADDs and endogenous clozapine-binding sites; Gi1 activation (BRET ratio) [3]: activate Gi1; Go1 activation (BRET ratio) [4]: activate Go1; Reduction of locomotor activity (distance traveled) [7]: more effective than clozapine at reducing locomotor activity; Brain metabolism change (DREAMM) ([5]; D1-hM3Dq mice, 0.1 mg/kg IP): decreased metabolism; Brain metabolism change (DREAMM) ([5]; D1-hM4Di mice, 0.1 mg/kg IP): increased metabolism; Brain metabolic changes (FDG-PET) ([5]; WT mice, 0.1 mg/kg IP): no significant brain metabolic changes; Inhibition of light-evoked neuronal activation [9]: rapid and potent hM4Di-driven inhibition; Binding to the tested DREADDs (in words) [1]: especially effective at binding the tested DREADDs; hM3Dq activation (fluorescence, calcium accumulation) [6]: effective at activating hM3Dq |
